Results published in patent publication US8957215B2, “Heteroaryl substituted benzothiazoles” (Navidea Biopharmaceuticals, Inc., priority 2006, dated 2015).
pIC50: −log10 of the molar value. Where two headings read alike, the source gives them in different places.

Legend:
[1] = during the first 5-10 min, reference radioligands; cited from earlier work
synthetic Aβ 1-40 [2] = molecular target: T1, synthetic Aβ 1-40 (Homo sapiens, UniProt P05067); test: Competition binding assay with [^3H]PIB as radioligand
T1 construct: using synthetic Aβ 1-40 in 2.7 nM of [^3H]PIB
Experimental: (§1) Competition binding was performed in 384-well FB filter plates using synthetic Aβ 1-40 in 2.7 nM of [^3H]PIB (or another ^3H-labeled radioligand when so mentioned) in phosphate buffer at pH 7.5, by adding various concentrations of non-radioactive compounds originally dissolved in DMSO. The binding mixture was incubated for 30 min at room temperature, followed by vacuum filtration, and subsequentially by washing twice with 1% Triton-X100. Scintillation fluid was thereafter added to the collected Aβ 1-40 on the filter plate, and the activity of the bound remaining radioligand ([^3H]PIB or another ^3H-labeled radioligand) was measured using 1450 Microbeta from PerkinElmer.
Specific binding was determined according to the competition binding assay described herein. The determined IC50's in the competition binding assays (using [^3H]PIB as radioligand) of 5 compounds of the present invention are shown in Table 1. Results (activity of remaining [^3H]PIB versus increasing concentration of non-labeled compounds) from typical competition assay experiments are exemplified in FIG. 1. In a similar way, competition studies with ^3H-labeled heteroaryl substituted benzthiazole derivates of the present invention were also conducted. Such results, from a typical competition study, are examplified in FIG. 2. PIB and 2-[6-(methylamino)pyridin-3-yl]-1,3-benzothiazol-6-ol (a novel compound of the present invention) both displaced [N-methyl-^3H3]-2-(6-methylamino-pyridin-3-yl)-benzothiazol-6-ol (a ^3H-labeled compound of the present invention). The binding of [N-methyl-^3H3]-2-(6-methylamino-pyridin-3-yl)-benzothiazol-6-ol (example 32) to Aβ1-40 fibrils, was reversible as evident from the dissociation experiment exemplified in FIG. 3.

[3] = In vivo rat brain entry study; conditions: i.v.
Experimental: Brain exposure after i.v administration was determined in rat brains using cassette dosing. Four different compounds were dosed followed by plasma and brain sampling at 2 and 30 minutes after the dosing. 2 to 30 min brain concentration ratios, and percentage of total of injected dose after 2 mins found in brain, were calculated. The compound concentrations were determined by analysis of protein precipitated plasma samples by reversed-phase liquid chromatography coupled to a electrospray tandem mass spectrometer.
FIG. 4. Brain and plasma concentration at 2 and 30 minutes after i.v. administration in rat of PIB (upper graph “A”), and 2-[6-(methylamino)pyridin-3-yl]-1,3-benzothiazol-6-ol (lower graph “B”), a compound of the present intervention (example 27).

[4] = tested on: amyloid plaques in APP/PS1 mouse brain; format: in vivo
Experimental: Naïve, awake mice were restrained and intravenously infused via the tail vein with either a tritium labeled compound of the present invention, or a tritium labeled reference compound via the tail vein. In one type of experiment, the animals were rapidly anesthetized with isofluorane and decapitated twenty minutes after compound administration (1 mCi). In another type of experiment, mice were given 1 mCi of a compound and were anesthetized and decapitated at a timepoint of 20, 40 or 80 minutes after administration. Brains were removed and frozen with powdered dry ice. Brains were sectioned (10 μm) in the coronal plane at the level of the striatum with a cryostat, thaw-mounted onto superfrost microscope slides and air-dried.
Methods designed to optimize the imaging of bound ligand after in vivo administration were thereafter employed. To selectively reduce unbound radioactivity levels, one-half of the sections were rinsed (3×10 minutes) in cold (1° C.) Tris buffer (50 mM, pH7.4) followed by a rapid rinse in cold (1° C.) deionized water. Sections were then air dried in front of a fan. Rinsed as well as unrinsed sections and tritium standards were exposed to phosphoimage plates (Fuji). Phosphoimage plates were processed with a Fujifilm BAS-2500 phosphoimager using BAS Reader software.

[5] = tested on: amyloid plaques in post-mortem human AD brains; test: Binding to amyloid plaques in post-mortem human AD brain sections
Experimental: (§2) Slide-mounted brain sections (10 μm) from APP/PS1 transgenic mice were collected at the level of the lateral septum (bregma+0.98 mm; see Paxinos and Franklin, 2001). Human cortical sections (7 μm) from two AD patients and 1 control subject were obtained from a Dutch tissue bank.
(§3) Sections were preincubated for 30 minutes at room temperature in 50 mM Tris HCl (pH 7.4) in the presence or absence of 1 μM PIB. Sections were transferred to buffer containing tritium-labeled compound (1 nM) with or without PIB (1 μM) and incubated for 30 minutes at room temperature. Incubation was terminated by 3 consecutive 10 minute rinses in buffer (1° C.) followed by a rapid rinse in distilled water (1° C.). Sections were air dried in front of a fan. Dried sections and plastic tritium standards (Amersham microscales-^3H) were apposed to phosphoimage plates (Fuji) in a cassette and exposed overnight. The following morning, the image plates were processed with a Fuji phosphoimager (BAS 2500) using BAS Reader software. The resulting image was converted to TIF format using Aida software, optimized with Adobe Photoshop (v 8.0) and quantified using Image-J (NIH). Data were statistically analyzed using Excel.

[6] = tested on: amyloid plaques in APP/PS1 transgenic mice brain sections; test: Binding to amyloid plaques in APP/PS1 transgenic mouse brain sections; conditions: 1 nM tritium-labeled compound
Experimental: as §2, §3

[7] = molecular target: T2, human synthetic Aβ 1-40 fibrils (Homo sapiens, UniProt P05067); test: Dissociation experiment; format: binding; conditions: FIG. 3
T2 construct: 2 μM human synthetic Aβ 1-40 fibrils in phosphate buffer pH 7.5
Experimental: Dissociation experiments were performed in 96-well polypropylene deep well plates. 2 μM human synthetic Aβ 1-40 fibrils in phosphate buffer pH 7.5, or buffer alone as control, was incubated with 9 nM of a ^3H-labeled radioligand of the present invention for 4 h at room temperature. Dissociation was started at different time points, by the addition of an equal volume of a non-labeled compound of the present invention, or a reference compound (10 μM), in 4% DMSO in phosphate buffer at pH 7.5. The radioactivity still bound to the Aβ 1-40 fibrils at the end of the incubation was detected on FB filters after filtration in a Brandel apparatus using a wash buffer containing 0.1% Triton-X100.
FIG. 3. Example of a dissociation experiment: Dissociation of [N-methyl-^3H3]-2-(6-methylamino-pyridin-3-yl)-benzothiazol-6-ol (example 32) from Aβ1-40 fibrils over time.

synthetic Aβ 1-40 [8] = molecular target: T1, synthetic Aβ 1-40; test: Competition binding assay with [N-methyl-^3H3]-2-(6-methylamino-pyridin-3-yl)-benzothiazol-6-ol as radioligand; conditions: ^3H-labeled example 32 as radioligand, FIG. 2
Experimental: as §1
Specific binding was determined according to the competition binding assay described herein. The determined IC50's in the competition binding assays (using [^3H]PIB as radioligand) of 5 compounds of the present invention are shown in Table 1. Results (activity of remaining [^3H]PIB versus increasing concentration of non-labeled compounds) from typical competition assay experiments are exemplified in FIG. 1. In a similar way, competition studies with ^3H-labeled heteroaryl substituted benzthiazole derivates of the present invention were also conducted. Such results, from a typical competition study, are examplified in FIG. 2. […]

[9] = Whole body PET measurement in monkey; format: in vivo
Experimental: Whole body PET-measurement was performed in one monkey. A sterile physiological phosphate buffer (pH=7.4) solution containing 51 MBq of [^11C]PIB in the first measurement, and 57 MBq of a [^11C]-labelled compound of the present invention in the second measurement, was injected as a bolus into a sural vein over a period of 5 seconds with simultaneous start of PET-data acquisition that lasted for 87 min. The time between radioligand injections was 2 h. PET measurements were assessed visually by creating planar maximum intensity projection images of decay uncorrected data and also converting decay corrected images to ones containing parts-per-million (ppm) values of the total injected radioactivity.

[10] = Brain PET study in monkey; format: in vivo
Experimental: The monkey PET study aimed to assess and compare a [^11C]-labelled compound of this invention to [^11C]PIB regarding measures of brain availability, non-specific binding in the brain, whole body biodistribution, elimination and exploration of regional differences in uptake. Five brain PET measurements were performed in three monkeys under anesthesia. In each PET-measurement a sterile physiological phosphate buffer (pH=7.4) solution containing 52-55 MBq of either a [^11C]-labelled compound of this invention, or [^11C]PIB, was injected as a bolus into a sural vein over a period of 5 seconds with simultaneous start of PET-data acquisition. Radioactivity in brain was measured continuously for 93 minutes. Only [^11C]PIB measurement was performed in the first monkey. In the other two monkeys a [^11C]-labelled compound of the present invention was measured first and [^11C]PIB was administered in a subsequent measurement. The time between radioligand injections was approx. 2 h. PET measurements were evaluated with respect to the time-activity curve for the whole brain expressed as percent injected radioactivity dose.

T1 sequence (P05067 672-711 limits assumed): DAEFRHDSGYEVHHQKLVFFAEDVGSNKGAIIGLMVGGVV
T2 sequence (P05067 672-711 limits assumed): as above

## CCN1CCC[C@H]1CNC(=O)c1c(O)c(Cl)cc(Cl)c1O[11CH3] (racemic) [[^11C]raclopride]
[1]
  fraction of the total injected radioactivity present in the brain: 1-2%

## CN1CCN(c2ccc(-c3nc4ccc(O)cc4s3)cn2)CC1 [Example 6, 2-[6-(4-Methylpiperazin-1-yl)pyridin-3-yl]-1,3-benzothiazol-6-ol Acetate]
Synthetic Aβ 1-40 [2]
  pIC50: 6.75

## COc1ccc(-c2nc3ccc(C(N)=O)cc3s2)cn1 [Example 9, 2-(6-Methoxypyridin-3-yl)-1,3-benzothiazole-6-carboxamide]
Synthetic Aβ 1-40 [2]
  pIC50: 6.77

## CC(=O)Nc1ccc2nc(-c3ccc(N4CCN(C)CC4)nc3)sc2c1 [Example 15, N-{2-[6-(4-Methylpiperazin-1-yl)pyridin-3-yl]-1,3-benzothiazol-6-yl}acetamide]
Synthetic Aβ 1-40 [2]
  pIC50: 6.73

## CNc1ccc(-c2nc3ccc(OC)cc3s2)cn1 [Example 25, 5-(6-Methoxy-1,3-benzothiazol-2-yl)-N-methylpyridin-2-amine]
Synthetic Aβ 1-40 [2]
  pIC50: 7.24

## CNc1ccc(-c2nc3ccc(O)cc3s2)cn1 [Example 27, 2-[6-(Methylamino)pyridin-3-yl]-1,3-benzothiazol-6-ol]
[3]
  2 minute to 30 minute brain concentration ratio: > 15
[3]; 2 min time point
  brain uptake value: 1 % of the injected dose

## [3H]C([3H])([3H])Nc1ccc(-c2nc3ccc(O)cc3s2)cn1 [Example 32, [N-Methyl-^3H3]-2-(6-Methylamino-pyridin-3-yl)-benzothiazol-6-ol]
[4]; 20 minutes after administration
  cortical plaque labeling in rinsed tissue: highest
[4]; 80 minutes after administration
  cortical plaque labeling in rinsed tissue: barely detectable
[4]; APP/PS1 mice, decapitation 20 minutes after administration
  labeling of cortical structures after in vivo administration: labeled cortical structures
[4]; corpus callosum (white matter)
  effect of in vitro rinse on levels in corpus callosum: dramatically reduced
[4]; striatum (gray matter)
  reduction of nonspecific binding by in vitro rinse: 78.5%
[5]; human cortical sections
  levels of nonspecific binding compared to [^3H]PIB: substantially reduced
[5]; human cortical sections, 1 nM tritium-labeled compound
  labeling of dense core plaques: labeled dense core plaques
[5]; superficial gray layers of human cortex
  specific binding levels greater than binding observed with [^3H]PIB: approximately 40%
[6]
  labeling of dense core plaques: labeled dense core plaques
[7]
  reversibility of binding to Aβ1-40 fibrils: reversible

## CNc1ccc(-c2nc3ccc(O)cc3s2)cc1 [PIB]
Synthetic Aβ 1-40 [8]
  displacement of [N-methyl-^3H3]-2-(6-methylamino-pyridin-3-yl)-benzothiazol-6-ol: displaced

## [11CH3]Nc1ccc(-c2nc3ccc(O)cc3s2)cc1 [[^11C]PIB, reference compound]
[9]
  elimination routes: urinary excretion and hepatobiliary secretion

## [11CH3]Nc1ccc(-c2nc3ccc(O)cc3s2)cn1 [^11C-Example 1, [N-Methyl-^11C]-2-(6-Methylamino-pyridin-3-yl)-benzothiazol-6-ol]
[10]; monkey
  brain concentration after the peak: declined rapidly
[10]; monkey brain, time points of relevance for PET-detection
  unspecific binding as compared to [^11C]PIB: significantly lower
[10]; monkey, FIG. 12
  brain exposure: 1-3 % of total injected radioactivity
[10]; monkey, after injection
  time of peak brain uptake: first minute
[9]
  elimination as compared to [^11C]PIB: faster elimination
  elimination routes: urinary excretion and hepatobiliary secretion
